Measured values taken from ChEMBL document CHEMBL1201862, “PubChem BioAssay data set” (2004).
Active and inactive are the calls of the source.

Experiments:
[1] = NIH3T3 cell viability loss – ATP luminescence, mouse fibroblasts, counter-screen, dose response (AID 2010); format: functional, cell-based;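 further: cells exposed to compound for about 90 hours before reading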
[2] = Trypanosoma cruzi growth suppression in host cells – NIH3T3 host cells, beta-gal luminescence, confirmation (AID 2044); format: functional, cell-based;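 further: intracellular parasites grown in NIH/3T3 mouse fibroblasts as host cells; luminescent beta-galactosidase reporter signal from transgenic T. cruzi replicating inside host cells; inhibitors lower the luminescence signal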
Cytochrome P450 2D6 = Cytochrome P450 2D6 (Homo sapiens, UniProt P10635);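 further: CYP2D6 member of a cytochrome P450 panel assay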
Cytochrome P450 1A2 = biological target: T1, Cytochrome P450 1A2 (Homo sapiens, UniProt P05177);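 further: PubChem cytochrome P450 panel assay, CYP1A2 panel member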
T1 sequence (P05177 whole entry): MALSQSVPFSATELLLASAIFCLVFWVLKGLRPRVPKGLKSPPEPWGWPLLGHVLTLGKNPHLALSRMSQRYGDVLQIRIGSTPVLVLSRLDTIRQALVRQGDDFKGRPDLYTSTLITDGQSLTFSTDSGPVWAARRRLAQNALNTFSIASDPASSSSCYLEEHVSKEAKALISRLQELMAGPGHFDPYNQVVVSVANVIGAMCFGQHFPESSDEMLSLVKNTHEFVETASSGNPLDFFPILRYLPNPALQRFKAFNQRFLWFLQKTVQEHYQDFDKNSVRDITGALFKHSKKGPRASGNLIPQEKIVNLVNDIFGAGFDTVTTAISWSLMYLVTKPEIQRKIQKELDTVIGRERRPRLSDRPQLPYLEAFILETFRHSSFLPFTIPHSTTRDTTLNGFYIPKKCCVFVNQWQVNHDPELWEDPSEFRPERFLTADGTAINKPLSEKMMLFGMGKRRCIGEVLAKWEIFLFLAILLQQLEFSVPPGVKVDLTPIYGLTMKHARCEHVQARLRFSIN

[3] = biological target: T2, Short transient receptor potential channel 4 (Mus musculus, UniProt Q9QUQ5); test: calcium entry via TRPC4 opening agents – cell-based, HEK293 TRPC4/mu-opioid, Fluo-4 calcium, dose response (AID 434937); format: functional
T2 sequence (Q9QUQ5 whole entry): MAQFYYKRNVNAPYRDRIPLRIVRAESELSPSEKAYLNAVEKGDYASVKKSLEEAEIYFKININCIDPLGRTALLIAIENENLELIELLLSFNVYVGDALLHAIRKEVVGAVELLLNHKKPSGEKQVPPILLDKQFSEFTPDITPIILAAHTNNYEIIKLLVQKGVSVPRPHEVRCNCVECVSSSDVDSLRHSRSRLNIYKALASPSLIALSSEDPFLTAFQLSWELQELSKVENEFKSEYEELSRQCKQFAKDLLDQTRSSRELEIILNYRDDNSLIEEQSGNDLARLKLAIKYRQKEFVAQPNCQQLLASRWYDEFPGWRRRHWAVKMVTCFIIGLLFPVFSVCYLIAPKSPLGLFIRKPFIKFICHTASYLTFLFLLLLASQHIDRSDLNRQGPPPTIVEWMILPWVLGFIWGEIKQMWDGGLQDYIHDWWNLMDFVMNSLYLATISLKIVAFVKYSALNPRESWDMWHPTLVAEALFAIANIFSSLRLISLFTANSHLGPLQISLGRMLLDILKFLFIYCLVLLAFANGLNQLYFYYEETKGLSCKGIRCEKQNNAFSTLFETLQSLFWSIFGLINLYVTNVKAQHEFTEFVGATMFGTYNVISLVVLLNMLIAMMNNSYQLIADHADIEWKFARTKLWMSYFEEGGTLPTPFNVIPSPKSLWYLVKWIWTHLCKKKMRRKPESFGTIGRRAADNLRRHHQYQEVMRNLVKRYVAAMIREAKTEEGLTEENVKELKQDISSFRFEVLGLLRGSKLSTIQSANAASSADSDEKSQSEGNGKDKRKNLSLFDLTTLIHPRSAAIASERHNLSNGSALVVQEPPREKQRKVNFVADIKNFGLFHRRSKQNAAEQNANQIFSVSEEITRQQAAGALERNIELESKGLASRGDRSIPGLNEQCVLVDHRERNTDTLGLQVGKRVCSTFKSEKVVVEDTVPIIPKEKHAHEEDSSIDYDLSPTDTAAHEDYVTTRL

[4] = biological target: FAD-linked sulfhydryl oxidase ALR (Homo sapiens, UniProt P55789); test: ALR-catalysed DTT oxidation blockers – biochemical, H2O2 detection, luminescence, cherry-pick, dose response (AID 493248)
H9c2 = test: cells; format: functional, cell-based; details: Rattus norvegicus, H9c2, Myocardium
[5] = biological target: Glucose-6-phosphate 1-dehydrogenase (Homo sapiens, UniProt P11413); test: inhibition of Homo sapiens G6PD, dose series – biochemical, fluorescence, selectivity assay for P. falciparum G6PD inhibitor project, dose response (AID 504792); format: functional
[6] = luciferase reporter signal suppression in cells – H4 neuroglioma cells, luminescence, dose response (AID 1990); format: functional, cell-based
[7] = alpha-synuclein stem-loop luciferase translation blockers – H4 neuroglioma cells, luminescence, confirmation (AID 1988); format: functional, cell-based
[8] = Luminescence Cell-Based Dose Response HTS to Identify Inhibitors of 5'UTR Stem-Loop Driven Prion Protein mRNA Translation in H4 Neuroglioblastoma Cells. [Related pubchem assays: 1827 (Project Summary), 1813 (Primary HTS)]; format: functional
[9] = test system: Streptococcus sp. 'group A'; test: Streptococcus pyogenes SK(-)GAS viability under kanamycin – luminescence, BacTiterGlo, confirmation, counter-screen for streptokinase expression inhibitor project, dose response (AID 1900); format: functional, organism-based
Streptococcus = test: GAS UMAA2166 growth inhibition – luminescence, BacTiterGlo, counter-screen for streptokinase expression inhibitor project, dose response (AID 1915); format: functional, organism-based;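 further: potency for reduction of bacterial viability or growth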
[10] = fluconazole-exposed Candida albicans growth modulators – fluorescence, retest, confirmation (AID 2467); format: functional, cell-based
[11] = NIH-3T3 fibroblast cytotoxicity, dose response, cytotoxicity control, cell-based, fluorescence, Alamar Blue, secondary assay (AID 2327); format: functional;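 further: NIH-3T3 mouse fibroblasts cultured with fluconazole at 8 µg/mL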
Vero = test: cells; format: functional; details: Chlorocebus sabaeus
[12] = Luminescence Cell-Based Dose Retest to Confirm Inhibitors of Cancer Stem Cells. [Related pubchem assays (depositor defined):AID2717, AID2721]; format: functional; details: Homo sapiens
Genome polyprotein = Genome polyprotein (dengue virus type 2, UniProt P29990); test: flavivirus cap methylation enzyme inhibition – biochemical, confirmation dose response, primary screen (AID 588689); format: functional
Cytochrome P450 2C9 = Cytochrome P450 2C9 (Homo sapiens, UniProt P11712)
Cytochrome P450 3A4 = Cytochrome P450 3A4 (Homo sapiens, UniProt P08684);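 further: CYP3A4 tested as one member of a cytochrome P450 panel screen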

## CC(C)(C)NS(=O)(=O)c1ccc(NC(=O)c2cc(-c3ccccc3)nc3ccccc23)cc1
[1]
  EC50: > 60 µM (not active)
[2]
  EC50: 2.03 µM (active)
Cytochrome P450 2D6
  AC50: 3.98 µM (inconclusive)
Cytochrome P450 1A2
  AC50: 3.16 µM (inconclusive)

## CCc1ccc(C(=O)c2cnc3ccc(OC)cc3c2N2CCN(CC)CC2)cc1
[3]
  EC50: 5.96 µM (active)

## Cc1cc(C(=O)NNC(=O)CCN2CCN(c3ccccc3)CC2)c2ccccc2n1
[4]
  AC50: 5.94 µM (active)

## CCOC(=O)C1=C(C)N=C(C)C(=C(O)OCC)C1C(=O)OCC(=O)NC(C)C (configuration not stated)
H9c2
  IC50: > 79 µM (inactive)

## Cc1cc(C)n(-c2nnc(C)n2/N=C/c2ccccc2OCc2ccccc2Cl)n1
Cytochrome P450 2D6
  AC50: 28.2 µM (inconclusive)

## CCOC(=O)c1ccc(/[N+]([O-])=C/c2ccccc2)cc1
[5]
  IC50: > 80 µM (inactive)

## O=[N+]([O-])c1ccc(N/N=C/c2cn(Cc3ccc(F)cc3)c3ccccc23)nc1
[6]
  EC50: 25.8 µM (active)
[7]
  EC50: 12 µM (active)
[8]
  EC50: 15.2 µM (active)

## c1coc(-c2nnc3sc(-c4cccs4)nn23)c1
H9c2
  IC50: 15.6 µM (active)

## COc1ccc(CNc2ccnc(-c3ccccc3Cl)n2)c(OC)c1
Cytochrome P450 2D6
  AC50: 39.8 µM (inconclusive)

## Cc1ncc(CO)c2cc(C(=O)Nc3ccccc3Cl)/c(=N/c3cccc(C(N)=O)c3)oc12
H9c2
  IC50: 12.4 µM (active)

## O=c1oc2cc(Br)ccc2n1CSC1=NCCS1
[4]
  AC50: 0.033 µM (active)

## Sc1nnc(/C=C/c2ccccc2)o1
[4]
  AC50: 29.9 µM (active)

## O=C(c1ccco1)N1CCC[C@@]2(CCN(c3ncccn3)C2)C1
Cytochrome P450 2D6
  AC50: 25.1 µM (inconclusive)

## COc1cccc(/C=N/NC(=O)CSc2cccc3cccnc23)c1
[5]
  IC50: > 80 µM (inactive)

## CCOc1ccc(/C=C2/Sc3ccc(C(=O)N4CCN(C(=O)c5ccco5)CC4)cc3N(C)C2=O)cc1OC
[9]
  EC50: 2.63 µM (active)
[6]
  EC50: 105 µM (active)
Streptococcus
  EC50: 5.98 µM (active)
[7]
  EC50: 97.7 µM (active)
[8]
  EC50: > 120 µM (not active)

## COc1ccc(-c2csc(NC(=O)c3cccc(N4C(=O)CCC4=O)c3)n2)cc1OC
H9c2
  IC50: > 79 µM (inactive)

## O=C(N/N=C\c1ccccn1)c1cccc(C(=O)N/N=C\c2ccccn2)n1
H9c2
  IC50: > 79 µM (inactive)

## COc1ccccc1C(=O)NNC(=S)NC(=O)c1cc(OC)c(OC)c(OC)c1
[9]
  EC50: 1.25 µM (active)
[10]
  EC50: 2.49 µM (active)
[1]
  EC50: 6.32 µM (active)
[11]
  EC50: > 150 µM (inactive)
Streptococcus
  EC50: 2.5 µM (active)
[2]
  EC50: 0.158 µM (active)
Vero
  CC50: 13.6 µM (active)

## Cc1cccc(C(=O)N2CCc3cc(-c4csc(NC(=O)CN5CCCC5)n4)ccc32)c1
Vero
  CC50: > 25 µM (active)

## Cc1ccc2nc(O)c(CN(CCCN3CCOCC3)C(=O)Nc3ccc(Cl)cc3)cc2c1
H9c2
  IC50: > 79 µM (inactive)

## CC(C)c1nnc(NC(=O)c2cccc(-n3cnnn3)c2)s1
[5]
  IC50: 50 µM (inactive)

## CC1CC(C)CN(CCCNC(=O)c2ccc3c(c2)N(Cc2ccccc2)C(=O)c2ccccc2[S+]3[O-])C1 (configuration not stated)
[3]
  EC50: 0.841 µM (active)

## COc1ccc(C(=O)Nc2ccc(OCC(F)(F)C(F)F)c(C(F)(F)F)c2)cc1OC
[12]
  AC50: 3.78 µM (active)
Cytochrome P450 2D6
  AC50: 22.4 µM (inconclusive)

## CC(=O)n1cc([C@H]2C=C(C(=O)NCc3ccccc3)O[C@@H](OCc3ccc(CO)cc3)C2)c2ccccc21
[3]
  EC50: 8.41 µM (active)

## CC(C)c1ccc(NC2CCCN(C(=O)c3cnc4ccccn4c3=O)C2)cc1 (configuration not stated)
[4]
  AC50: 8.31 µM (active)

## CCOc1ccc(N2C(=O)NC(=O)/C(=C\c3ccccc3[N+](=O)[O-])C2=O)cc1
Genome polyprotein
  IC50: 30.5 µM (active)

## O=C(NCC(=O)N1CCN(c2ccccc2)CC1)c1cccs1
[4]
  AC50: 21.4 µM (active)

## CC(NC(=O)CCSc1nc(-c2ccco2)cc(C(F)(F)F)n1)c1ccccc1 (configuration not stated)
Cytochrome P450 2C9
  AC50: 15.8 µM (inconclusive)
Cytochrome P450 2D6
  AC50: 15.8 µM (inconclusive)

## CCN(CC(=O)Nc1cc(Cl)ccc1C)C(=O)C1CCN(c2ncnc3sc(C)c(C)c23)CC1
H9c2
  IC50: 12.7 µM (active)

## COc1ccc(-n2cc(CNCCCn3ccnc3)c(-c3cccc(F)c3)n2)cc1
Vero
  CC50: > 25 µM (active)

## O=C(NC12CC3CC(CC(C3)C1)C2)C12CC3CC(C1)CC(n1cnc(Cl)n1)(C3)C2
Cytochrome P450 2D6
  AC50: 11.2 µM (inconclusive)
Cytochrome P450 3A4
  AC50: 14.1 µM (inconclusive)

## CCn1c(S)nnc1-c1ccccc1O
[4]
  AC50: 9.17 µM (active)

## CN1CCc2nc3ccccc3c(C(=O)OCC(=O)N(CCC#N)c3ccccc3)c2C1
H9c2
  IC50: > 79 µM (inactive)

## Cc1cccc(NC(S)=Nc2ccc(Br)cc2)c1
Cytochrome P450 2D6
  AC50: 8.91 µM (inconclusive)
Cytochrome P450 3A4
  AC50: 25.1 µM (inconclusive)

## Cc1c(/C=C/C(=O)c2ccc(Cl)s2)cnn1C
[5]
  IC50: > 80 µM (inactive)

## C=CCN1CCc2cccc3c2[C@@H]1Cc1ccc(O)c(O)c1-3
Cytochrome P450 2C9
  AC50: 31.6 µM (inconclusive)
Cytochrome P450 2D6
  AC50: 31.6 µM (inconclusive)
Cytochrome P450 3A4
  AC50: 31.6 µM (inconclusive)

## COc1cc(/C=N/N2CCCCC2)cc([N+](=O)[O-])c1O
[4]
  AC50: 2.71 µM (active)

## Cc1cccc(C)c1OCCn1nc(C(=O)O)c2ccccc2c1=O
H9c2
  IC50: > 79 µM (inactive)

## COc1cccc(C(=O)N(C)CC2CCN(CCc3cccc(C(F)(F)F)c3)CC2)c1
[3]
  EC50: 0.596 µM (active)

## Oc1ccc(-c2onc3ccc(Cl)cc23)cc1
[4]
  AC50: 6.97 µM (active)

## CCN(CC)CCCOc1ccc(Cl)c(Cl)c1
[3]
  EC50: 2.37 µM (active)
